In patent US20110104301A1, “METHODS OF REDUCING PAIN AND INFLAMMATION” (Georgetown University, A Congressionally Chartered …, priority 2008, published 2011):

What was measured:
Assay type in all cases: cell-based
mouse TRPA1 = target: T1, mouse TRPA1 (Mus musculus, UniProt Q8BLA8); assay: Current-voltage recordings in mTRPA1-expressing HEK293 cells; details: desflurane 1 mM
T1 construct: expressed in transfected cells; host or cells: HEK293
Experimental: (§1) A genetic approach was used to identify critical sites in TRPA1 and TRPV1 required for activation by general anesthetics. Drosophila TRPA1 is insensitive to desflurane (at concentrations up to 3 mM). […] Note that dTRPA1 is insensitive to AITC. Next, several chimeric TRP proteins containing dTRPA1 (unresponsive to desflurane) and mTRPA1 were tested. For the dTRPA1-mN chimera, the mouse 720 amino acid N-terminus was exchanged for the drosophila N-terminus. The N-terminal domain contains essential binding sites for AITC, and therefore studying this chimera tests an important role for the N-terminus in anesthetic-sensing. […] The mTRPA1-dTM5 construct was then studied, which is the mouse protein containing the fifth transmembrane domain of the drosophila protein.

mTRPA1-dTM5 = assay: Current-voltage recordings of chimera mTRPA1-dTM5
Experimental: as §1

Drosophila TRPA1 = target: T2, Drosophila TRPA1 (Drosophila melanogaster, UniProt Q7Z020); assay: Current-voltage recordings in dTRPA1-expressing HEK293 cells; details: desflurane at concentrations up to 3 mM
T2 construct: expressed in transfected cells; host or cells: HEK293
T2 sequence (Q7Z020 1-1197): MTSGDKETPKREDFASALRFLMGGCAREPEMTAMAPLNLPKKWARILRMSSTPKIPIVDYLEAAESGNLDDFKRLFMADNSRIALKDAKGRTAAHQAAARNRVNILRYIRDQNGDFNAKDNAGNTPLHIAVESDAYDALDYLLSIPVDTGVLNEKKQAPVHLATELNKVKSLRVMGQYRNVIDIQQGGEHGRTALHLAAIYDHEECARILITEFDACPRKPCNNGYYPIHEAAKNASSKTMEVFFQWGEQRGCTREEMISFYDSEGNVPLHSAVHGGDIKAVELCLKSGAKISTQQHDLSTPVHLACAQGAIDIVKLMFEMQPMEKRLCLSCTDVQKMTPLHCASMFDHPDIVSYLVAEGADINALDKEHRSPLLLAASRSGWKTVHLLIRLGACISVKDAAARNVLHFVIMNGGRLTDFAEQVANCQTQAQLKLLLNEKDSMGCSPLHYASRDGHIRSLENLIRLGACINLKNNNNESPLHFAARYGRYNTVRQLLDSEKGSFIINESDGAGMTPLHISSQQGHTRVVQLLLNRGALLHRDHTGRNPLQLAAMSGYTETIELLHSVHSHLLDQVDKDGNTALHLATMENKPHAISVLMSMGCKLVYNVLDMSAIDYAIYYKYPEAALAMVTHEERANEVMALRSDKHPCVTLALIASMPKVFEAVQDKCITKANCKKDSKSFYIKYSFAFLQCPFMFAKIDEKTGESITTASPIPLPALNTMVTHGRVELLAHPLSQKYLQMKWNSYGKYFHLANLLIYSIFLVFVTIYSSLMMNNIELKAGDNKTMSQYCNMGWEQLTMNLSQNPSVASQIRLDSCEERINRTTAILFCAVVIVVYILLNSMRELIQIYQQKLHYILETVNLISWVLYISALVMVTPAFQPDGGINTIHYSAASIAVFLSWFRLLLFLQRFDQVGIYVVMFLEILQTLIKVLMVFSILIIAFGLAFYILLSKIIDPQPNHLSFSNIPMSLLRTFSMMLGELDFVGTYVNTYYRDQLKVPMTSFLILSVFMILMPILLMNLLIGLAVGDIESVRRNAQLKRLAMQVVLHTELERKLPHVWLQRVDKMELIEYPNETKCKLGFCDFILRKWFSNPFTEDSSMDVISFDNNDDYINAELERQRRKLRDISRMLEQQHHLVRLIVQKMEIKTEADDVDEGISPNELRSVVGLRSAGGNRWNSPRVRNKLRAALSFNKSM
Experimental: as §1

dTRPA1-mN chimera = target: T3, dTRPA1-mN chimera (UniProt Q7Z020+Q8BLA8); assay: Current-voltage recordings of chimera dTRPA1-mN; details: mouse N-terminus substituted
T3 construct: mouse TRPA1 N-terminus (720 amino acids); expressed in transfected cells
Experimental: as §1

TRPV1 = target: T4, TRPV1 (Mus musculus, UniProt Q704Y3); assay: Patch-clamp of capsaicin-sensitive sensory neurons (nodose ganglia)
T4 construct: endogenous in cells; host or cells: primary nodose ganglion neurons of adult C57Bl6/J mice
Experimental: HEK cell and sensory neuron electrophysiology. HEK 293F cells (Invitrogen) were cultured in DMEM supplemented with 1% non-essential amino acids and 10% fetal calf serum. Cell cultures were maintained at 37° C. with 5% CO2. Cells were transfected with rat TRPV 1 (gift of David Julius), and GFP cDNA using Lipofectamine™ Transfection Reagent (Invitrogen) and used 24-48 h after transfection. Nodose ganglia were obtained from adult mice (C57B16/J and TRPV1-null), cut, digested with collagenase, and cultured in Neurobasal +2% B-27 medium (Invitrogen), 0.1% L-glutamine and 1% penicillin/streptomycin on poly-D lysine-coated glass coverslips at 37° C. in 5% CO2. Neurons were used within 24-36 hr of culture. Whole-cell and single-channel patch clamp recordings were performed using an EPC8 amplifier (HEKA). The current signal was low-pass filtered at 1-3 kHz and sampled at 4 kHz. Currents were further filtered for display purposes. For whole-cell and excised patch recordings the bath solution contained (in mM): 140 NaCl, 4 KCl, 1 MgCl2, 1 EGTA, 10 HEPES, 10 glucose pH 7.3 (290 mOsm). The pipette solution contained (in mM): 140 CsC1, 10 NaCl, 10 HEPES, 5 EGTA, 2 Mg ATP and 0.03 GTP, pH 7.3. The peak amplitudes measured either during the prepulse or the tail current (within 1 ms) were plotted as a function of the test potential and normalized to the maximal current obtained from the following Boltzmann function: […]

T4 sequence (Q704Y3 whole entry): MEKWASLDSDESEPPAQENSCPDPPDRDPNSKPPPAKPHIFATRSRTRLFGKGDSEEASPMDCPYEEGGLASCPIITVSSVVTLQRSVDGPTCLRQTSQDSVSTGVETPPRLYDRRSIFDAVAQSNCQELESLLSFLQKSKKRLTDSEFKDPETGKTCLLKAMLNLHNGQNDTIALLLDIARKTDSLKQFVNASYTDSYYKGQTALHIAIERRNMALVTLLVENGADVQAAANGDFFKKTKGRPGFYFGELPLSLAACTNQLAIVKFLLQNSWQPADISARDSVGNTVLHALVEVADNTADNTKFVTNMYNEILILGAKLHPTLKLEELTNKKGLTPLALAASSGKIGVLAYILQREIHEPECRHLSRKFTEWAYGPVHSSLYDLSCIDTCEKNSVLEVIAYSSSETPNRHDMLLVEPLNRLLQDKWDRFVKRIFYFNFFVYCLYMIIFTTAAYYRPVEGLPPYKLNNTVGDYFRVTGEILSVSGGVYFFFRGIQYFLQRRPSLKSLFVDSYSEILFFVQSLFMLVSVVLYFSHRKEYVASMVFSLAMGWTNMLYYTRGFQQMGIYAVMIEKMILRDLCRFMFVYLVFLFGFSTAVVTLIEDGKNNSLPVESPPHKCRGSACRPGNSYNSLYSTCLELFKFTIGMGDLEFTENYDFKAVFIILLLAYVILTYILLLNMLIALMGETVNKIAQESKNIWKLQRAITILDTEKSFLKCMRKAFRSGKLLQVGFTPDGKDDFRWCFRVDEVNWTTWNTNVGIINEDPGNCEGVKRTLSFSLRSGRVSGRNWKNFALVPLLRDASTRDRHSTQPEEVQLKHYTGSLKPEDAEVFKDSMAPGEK
T3 sequence (Q8BLA8+Q7Z020 fused, change not shown): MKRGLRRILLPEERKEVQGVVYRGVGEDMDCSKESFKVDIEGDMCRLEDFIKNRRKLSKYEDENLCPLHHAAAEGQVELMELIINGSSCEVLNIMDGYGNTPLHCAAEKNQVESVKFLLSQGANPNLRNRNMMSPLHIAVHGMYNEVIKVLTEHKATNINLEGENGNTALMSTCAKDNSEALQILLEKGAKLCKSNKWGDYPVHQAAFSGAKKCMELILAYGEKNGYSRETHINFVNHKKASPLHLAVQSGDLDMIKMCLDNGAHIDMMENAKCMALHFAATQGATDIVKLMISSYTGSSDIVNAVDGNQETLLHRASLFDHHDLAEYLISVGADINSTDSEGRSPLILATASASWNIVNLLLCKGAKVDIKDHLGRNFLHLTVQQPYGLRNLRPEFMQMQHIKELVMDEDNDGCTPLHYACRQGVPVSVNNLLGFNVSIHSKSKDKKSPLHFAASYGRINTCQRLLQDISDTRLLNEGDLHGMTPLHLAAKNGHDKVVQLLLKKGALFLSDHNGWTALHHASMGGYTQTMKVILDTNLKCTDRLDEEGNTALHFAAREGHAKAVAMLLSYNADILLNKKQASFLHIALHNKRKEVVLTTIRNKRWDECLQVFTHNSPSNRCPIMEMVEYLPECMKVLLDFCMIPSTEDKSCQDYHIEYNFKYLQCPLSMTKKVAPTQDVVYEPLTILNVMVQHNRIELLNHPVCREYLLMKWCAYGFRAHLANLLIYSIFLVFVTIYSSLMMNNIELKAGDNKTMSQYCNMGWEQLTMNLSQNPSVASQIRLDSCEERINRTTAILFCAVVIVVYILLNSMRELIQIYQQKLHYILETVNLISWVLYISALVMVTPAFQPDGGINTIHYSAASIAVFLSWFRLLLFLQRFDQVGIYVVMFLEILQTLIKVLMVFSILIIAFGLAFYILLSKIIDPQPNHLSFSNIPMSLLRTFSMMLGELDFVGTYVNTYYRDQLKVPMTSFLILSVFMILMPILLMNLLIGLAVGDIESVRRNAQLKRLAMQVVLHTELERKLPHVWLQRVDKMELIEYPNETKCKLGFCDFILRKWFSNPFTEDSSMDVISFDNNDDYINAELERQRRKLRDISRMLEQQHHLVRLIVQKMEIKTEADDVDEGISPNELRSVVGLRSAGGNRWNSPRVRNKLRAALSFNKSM
T1 sequence (Q8BLA8 whole entry): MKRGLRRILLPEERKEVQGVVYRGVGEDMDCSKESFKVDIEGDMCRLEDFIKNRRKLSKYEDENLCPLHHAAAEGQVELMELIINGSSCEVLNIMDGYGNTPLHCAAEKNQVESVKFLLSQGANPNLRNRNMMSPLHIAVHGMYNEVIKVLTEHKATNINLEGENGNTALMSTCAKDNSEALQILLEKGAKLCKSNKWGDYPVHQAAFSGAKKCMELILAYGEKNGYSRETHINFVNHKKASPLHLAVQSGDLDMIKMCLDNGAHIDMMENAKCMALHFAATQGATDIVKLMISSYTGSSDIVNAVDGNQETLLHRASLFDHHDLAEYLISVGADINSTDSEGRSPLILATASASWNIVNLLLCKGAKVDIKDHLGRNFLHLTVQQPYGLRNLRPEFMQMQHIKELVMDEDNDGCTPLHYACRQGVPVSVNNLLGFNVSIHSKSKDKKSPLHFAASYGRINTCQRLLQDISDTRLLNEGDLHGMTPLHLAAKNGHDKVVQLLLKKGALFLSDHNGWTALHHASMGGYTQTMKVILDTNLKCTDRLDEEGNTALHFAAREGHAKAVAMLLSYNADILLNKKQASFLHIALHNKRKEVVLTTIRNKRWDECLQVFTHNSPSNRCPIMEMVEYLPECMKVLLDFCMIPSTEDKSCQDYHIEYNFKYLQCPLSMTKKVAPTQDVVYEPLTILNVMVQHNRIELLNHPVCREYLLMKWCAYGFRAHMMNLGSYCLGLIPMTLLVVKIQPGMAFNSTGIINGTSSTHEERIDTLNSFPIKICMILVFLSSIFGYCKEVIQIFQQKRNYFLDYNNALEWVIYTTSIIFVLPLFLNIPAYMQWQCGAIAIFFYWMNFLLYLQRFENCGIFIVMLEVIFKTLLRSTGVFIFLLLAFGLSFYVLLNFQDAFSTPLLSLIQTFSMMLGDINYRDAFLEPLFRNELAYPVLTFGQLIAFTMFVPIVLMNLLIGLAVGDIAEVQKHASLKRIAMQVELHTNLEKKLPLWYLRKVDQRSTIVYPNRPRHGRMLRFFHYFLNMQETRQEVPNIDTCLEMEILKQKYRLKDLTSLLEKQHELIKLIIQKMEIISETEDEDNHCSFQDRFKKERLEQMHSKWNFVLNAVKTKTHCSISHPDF

FC(F)OC(F)C(F)(F)F (stereo not shown) [desflurane]
Activation of mouse TRPA1 (mouse TRPA1): activates
Sensitivity of mTRPA1-dTM5 chimera (mTRPA1-dTM5): abolished
Sensitivity of Drosophila TRPA1 (Drosophila TRPA1): insensitive
Response of dTRPA1-mN chimera (dTRPA1-mN chimera): no responses

FC(F)OC(Cl)C(F)(F)F (stereo not shown) [isoflurane]
Capsaicin-evoked single channel activity (TRPV1; cell-free outside-out patches, capsaicin 30 nM, isoflurane 0.9 mM): increased
Single TRPV1 channel activity in neurons after PDBu treatment (TRPV1; isoflurane 0.9 mM): activated
Response of sensory neurons under control conditions (TRPV1; isoflurane 0.9 mM, AITC-insensitive neurons): negligible responses
Enhancement of capsaicin-evoked whole-cell currents (TRPV1; isoflurane 0.9 mM, capsaicin 30 nM, n=5): approximately 3 fold
Response of sensory neurons after BK treatment (TRPV1; isoflurane 0.9 mM, n=7, P<0.01): marked increase in current
Membrane excitability under current-clamp, co-application with BK (TRPV1; n=3): depolarized neurons and initiated sustained spike discharge
